# Results reported in ChEMBL document CHEMBL1201862, “PubChem BioAssay data set” (2004).
# The source made the active and inactive calls.
# Legend:
# [1] = target: T1, Mannose-6-phosphate isomerase (Homo sapiens, UniProt P34949); assay: PMI enzyme inhibitors, confirmation, biochemical, fluorescence intensity (AID 1535)
# T1 sequence (P34949 whole entry): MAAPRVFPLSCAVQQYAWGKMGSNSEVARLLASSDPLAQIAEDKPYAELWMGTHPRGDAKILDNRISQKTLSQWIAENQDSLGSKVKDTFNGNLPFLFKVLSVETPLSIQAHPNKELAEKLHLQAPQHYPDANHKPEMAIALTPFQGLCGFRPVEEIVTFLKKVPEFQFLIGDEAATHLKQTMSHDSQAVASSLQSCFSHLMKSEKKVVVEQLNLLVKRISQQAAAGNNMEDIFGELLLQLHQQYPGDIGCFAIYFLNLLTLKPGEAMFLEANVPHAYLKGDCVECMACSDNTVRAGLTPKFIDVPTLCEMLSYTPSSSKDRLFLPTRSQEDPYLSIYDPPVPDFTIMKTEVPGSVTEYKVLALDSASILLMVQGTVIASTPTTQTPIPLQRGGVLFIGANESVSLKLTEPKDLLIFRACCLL
# [2] = target: Phosphomannomutase 2 (Homo sapiens, UniProt O15305); assay: Counter screen SAR assay for PMM2 inhibitors via a fluorescence intensity assay. [Related pubchem assays (depositor defined):AID1545, AID1574]
# Sequence of Phosphomannomutase 2 (O15305 whole entry): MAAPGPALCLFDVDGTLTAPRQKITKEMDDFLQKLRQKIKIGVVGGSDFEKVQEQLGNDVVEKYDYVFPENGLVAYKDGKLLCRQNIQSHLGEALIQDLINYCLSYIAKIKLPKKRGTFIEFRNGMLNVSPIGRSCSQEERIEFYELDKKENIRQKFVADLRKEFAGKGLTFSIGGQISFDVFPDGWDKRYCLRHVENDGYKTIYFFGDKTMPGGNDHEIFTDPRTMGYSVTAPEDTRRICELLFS
# [3] = test system: BJ; assay: cytotoxicity toward BJ-TERT-LT-ST fibroblasts, dose response, cell-based, RAS-independent, luminescence (AID 1935); assay type: functional; conditions: Homo sapiens;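 also: BJ fibroblasts immortalized with TERT plus LT and ST oncogenes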
# [4] = insulin promoter down-regulators in MIN6 cells, imaging, high-content screening, mouse beta cells (AID 1628); assay type: functional
# [5] = test system: BJ; assay: cells; assay type: functional, cell-based; conditions: Homo sapiens
# [6] = HepG2 cell cytotoxicity, dose response, cytotoxicity control for Shn3 inhibitor project, CellTiter-Glo, cherry-picked (AID 624134); assay type: functional, cell-based
# [7] = HEK293T cytotoxicity, dose response, cytotoxicity control for miR-122 modulator project, cell-based, activator set, cherry-pick (AID 720690); assay type: functional;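 also: HEK293T human cells scored for general mammalian cytotoxicity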
# [8] = cytotoxicity toward NIH3T3 fibroblasts, dose response, counter-screen, cell-based, ATP luminescence, mouse fibroblasts (AID 2010); assay type: functional;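 also: cells exposed to compound for about 90 hours before reading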
# [9] = inhibitors of intracellular T. cruzi replication, confirmation, NIH3T3 host cells, beta-gal luminescence (AID 2044); assay type: functional, cell-based;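 also: intracellular parasites grown in NIH/3T3 mouse fibroblasts as host cells; luminescent beta-galactosidase reporter signal from transgenic T. cruzi replicating inside host cells; inhibitors lower the luminescence signal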
# [10] = control 3'UTR Renilla luciferase suppression, dose response, counter-screen for Shn3 inhibitor project, cell-based, Clone20-Shn3RL, cherry-picked (AID 624133); assay type: functional
# [11] = cells; assay type: functional, cell-based
# [12] = test system: BJ; assay: cytotoxicity toward BJ-TERT fibroblasts, dose response, cell-based, RAS-independent, luminescence (AID 1933); assay type: functional; conditions: Homo sapiens
# [13] = cytotoxicity toward DRD oncogenic fibroblasts, dose response, cell-based, non-viral oncogenic, luminescence (AID 1934); assay type: functional; conditions: Homo sapiens
# [14] = cytotoxicity in MIN6 insulinoma cells, dose response, cytotoxicity control, cell-based, mouse insulinoma (AID 2122); assay type: functional;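 also: confirmatory high-throughput counterscreen run to flag cytotoxic compounds; mouse MIN-6 beta cells carrying an insulin promoter eGFP reporter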
# [15] = Shn3 3'UTR reporter inhibitors, dose response, cell-based, Clone20 osteoblasts, firefly luciferase, cherry-picked (AID 624132); assay type: functional;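 also: firefly luciferase luminescence from reporter carrying the Shn3 3'UTR in osteoblasts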
# [16] = cells; assay type: functional, cell-based; remark: listed apart in the source
# [17] = HEK293T cytotoxicity, dose response, cytotoxicity control for miR-122 modulator project, cell-based, inhibitor set, cherry-pick, set 2 (AID 720697); assay type: functional
# [18] = test system: INS1; assay: beta cell apoptosis inhibitors, cytokine rescue, dose response, luminescence, retest (AID 449756); assay type: functional, cell-based; conditions: Rattus norvegicus;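 also: cell death triggered by IL-1 beta plus TNF-alpha plus IFN-gamma mixture; protective hits raise ATP signal compared with cytokine alone wells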
# [19] = target: Induced myeloid leukemia cell differentiation protein Mcl-1 (Homo sapiens, UniProt Q07820); assay: MCL1-BIM BH3 interaction inhibitors, dose response, biochemical, fluorescence polarization, BIM-BH3 peptide, 1536-well (AID 2217)
# Sequence of Induced myeloid leukemia cell differentiation protein Mcl-1 (Q07820 whole entry): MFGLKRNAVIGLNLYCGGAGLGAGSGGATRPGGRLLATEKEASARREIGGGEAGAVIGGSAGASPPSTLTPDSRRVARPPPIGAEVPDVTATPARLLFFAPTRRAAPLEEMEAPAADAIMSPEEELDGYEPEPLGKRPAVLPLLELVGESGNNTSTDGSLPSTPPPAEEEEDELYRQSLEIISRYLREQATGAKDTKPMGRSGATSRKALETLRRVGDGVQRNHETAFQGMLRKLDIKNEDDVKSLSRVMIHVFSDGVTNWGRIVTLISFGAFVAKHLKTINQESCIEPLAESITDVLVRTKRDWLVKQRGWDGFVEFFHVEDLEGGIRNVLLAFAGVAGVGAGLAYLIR
# [20] = target: T2, Tyrosine-protein phosphatase non-receptor type 22 (Homo sapiens, UniProt Q9Y2R2); assay: PubChem AID 2140
# T2 sequence (Q9Y2R2 whole entry): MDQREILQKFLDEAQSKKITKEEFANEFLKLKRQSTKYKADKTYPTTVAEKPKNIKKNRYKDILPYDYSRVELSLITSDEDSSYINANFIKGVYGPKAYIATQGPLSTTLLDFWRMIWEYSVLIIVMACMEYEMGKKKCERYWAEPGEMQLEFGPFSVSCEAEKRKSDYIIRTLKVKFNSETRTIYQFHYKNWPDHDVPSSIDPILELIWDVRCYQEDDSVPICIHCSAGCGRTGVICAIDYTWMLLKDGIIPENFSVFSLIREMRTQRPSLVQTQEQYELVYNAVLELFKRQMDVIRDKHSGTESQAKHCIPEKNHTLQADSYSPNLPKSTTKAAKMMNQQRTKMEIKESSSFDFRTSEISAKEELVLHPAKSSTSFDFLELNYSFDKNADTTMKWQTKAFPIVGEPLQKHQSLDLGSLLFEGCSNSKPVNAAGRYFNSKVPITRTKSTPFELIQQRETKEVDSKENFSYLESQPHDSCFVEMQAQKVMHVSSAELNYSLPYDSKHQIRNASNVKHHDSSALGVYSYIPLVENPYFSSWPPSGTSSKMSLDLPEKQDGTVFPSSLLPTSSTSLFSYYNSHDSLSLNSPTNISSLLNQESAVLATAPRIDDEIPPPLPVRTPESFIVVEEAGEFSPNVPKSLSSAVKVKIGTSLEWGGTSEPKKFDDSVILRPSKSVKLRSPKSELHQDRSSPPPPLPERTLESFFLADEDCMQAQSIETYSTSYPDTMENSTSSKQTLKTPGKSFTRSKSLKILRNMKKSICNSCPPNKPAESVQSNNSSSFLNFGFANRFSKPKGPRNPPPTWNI
# [21] = target: T2, Tyrosine-protein phosphatase non-receptor type 22; assay type: functional
# [22] = target: SUMO E1/E2 (Homo sapiens, UniProt P63279+Q9UBE0+Q9UBT2); assay: SAR analysis of SUMOylation using HTRF in an in-Vitro dose response assay. [Related pubchem assays (depositor defined):AID2006, AID2011, AID2018, AID2069, AID2658]; assay type: functional
# Sequence of SUMO E1/E2 (Q9UBE0 whole entry): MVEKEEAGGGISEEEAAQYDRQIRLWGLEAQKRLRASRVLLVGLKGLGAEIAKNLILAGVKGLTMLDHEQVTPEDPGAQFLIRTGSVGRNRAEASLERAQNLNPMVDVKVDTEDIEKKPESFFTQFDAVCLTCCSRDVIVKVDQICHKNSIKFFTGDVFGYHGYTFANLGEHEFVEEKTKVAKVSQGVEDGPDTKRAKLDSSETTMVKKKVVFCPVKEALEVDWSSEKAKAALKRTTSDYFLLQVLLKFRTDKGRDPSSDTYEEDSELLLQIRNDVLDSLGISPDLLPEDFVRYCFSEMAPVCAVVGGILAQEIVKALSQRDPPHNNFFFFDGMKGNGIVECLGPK
# Sequence of SUMO E1/E2 (Q9UBT2 whole entry): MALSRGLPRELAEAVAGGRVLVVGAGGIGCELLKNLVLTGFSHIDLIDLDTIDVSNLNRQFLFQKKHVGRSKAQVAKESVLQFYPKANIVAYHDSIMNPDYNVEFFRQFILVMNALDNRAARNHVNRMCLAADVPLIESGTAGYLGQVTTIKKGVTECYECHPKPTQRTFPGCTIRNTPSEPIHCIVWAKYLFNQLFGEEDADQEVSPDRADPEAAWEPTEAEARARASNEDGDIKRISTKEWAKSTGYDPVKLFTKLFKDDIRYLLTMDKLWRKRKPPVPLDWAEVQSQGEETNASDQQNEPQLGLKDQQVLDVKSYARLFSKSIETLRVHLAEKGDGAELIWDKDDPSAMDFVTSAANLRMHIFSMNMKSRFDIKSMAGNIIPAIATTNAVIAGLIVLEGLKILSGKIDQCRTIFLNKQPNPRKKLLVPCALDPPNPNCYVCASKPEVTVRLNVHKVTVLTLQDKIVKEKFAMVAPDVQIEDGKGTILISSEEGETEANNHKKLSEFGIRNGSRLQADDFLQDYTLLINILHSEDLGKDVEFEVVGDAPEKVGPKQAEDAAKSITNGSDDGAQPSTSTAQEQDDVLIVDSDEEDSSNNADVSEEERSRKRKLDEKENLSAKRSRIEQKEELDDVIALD
# Sequence of SUMO E1/E2 (P63279 whole entry): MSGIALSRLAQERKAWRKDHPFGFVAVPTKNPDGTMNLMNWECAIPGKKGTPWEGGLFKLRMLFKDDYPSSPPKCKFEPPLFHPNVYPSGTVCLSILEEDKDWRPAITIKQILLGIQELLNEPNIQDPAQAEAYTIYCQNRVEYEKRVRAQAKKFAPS
# [23] = target: T3, Small ubiquitin-related modifier 2 (Homo sapiens, UniProt P61956); assay: SUMO2–SIM peptide binding inhibitors, dose response, selectivity assay for SUMO1 interaction inhibitor project, biochemical, fluorescence polarization, uHTS hits (AID 624385); assay type: functional; conditions: read-out: IC50_Mean
# T3 sequence (P61956 whole entry): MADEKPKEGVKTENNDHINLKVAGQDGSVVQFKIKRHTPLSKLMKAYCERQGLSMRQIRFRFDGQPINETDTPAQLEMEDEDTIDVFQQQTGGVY
# [24] = target: T2, Tyrosine-protein phosphatase non-receptor type 22; assay: inhibitors of LYP phosphatase, biochemical, fluorescence intensity, uHTS (AID 1779)
# [25] = target: Envelope glycoprotein gp160 (Human immunodeficiency virus 1, UniProt Q6QLK5); assay: inhibitors of HIV fusion peptide binding, primary screen, biochemical, uHTS, fluorescence dequenching (AID 1986)
# Sequence of Envelope glycoprotein gp160 (Q6QLK5 whole entry, the tested form may be a part): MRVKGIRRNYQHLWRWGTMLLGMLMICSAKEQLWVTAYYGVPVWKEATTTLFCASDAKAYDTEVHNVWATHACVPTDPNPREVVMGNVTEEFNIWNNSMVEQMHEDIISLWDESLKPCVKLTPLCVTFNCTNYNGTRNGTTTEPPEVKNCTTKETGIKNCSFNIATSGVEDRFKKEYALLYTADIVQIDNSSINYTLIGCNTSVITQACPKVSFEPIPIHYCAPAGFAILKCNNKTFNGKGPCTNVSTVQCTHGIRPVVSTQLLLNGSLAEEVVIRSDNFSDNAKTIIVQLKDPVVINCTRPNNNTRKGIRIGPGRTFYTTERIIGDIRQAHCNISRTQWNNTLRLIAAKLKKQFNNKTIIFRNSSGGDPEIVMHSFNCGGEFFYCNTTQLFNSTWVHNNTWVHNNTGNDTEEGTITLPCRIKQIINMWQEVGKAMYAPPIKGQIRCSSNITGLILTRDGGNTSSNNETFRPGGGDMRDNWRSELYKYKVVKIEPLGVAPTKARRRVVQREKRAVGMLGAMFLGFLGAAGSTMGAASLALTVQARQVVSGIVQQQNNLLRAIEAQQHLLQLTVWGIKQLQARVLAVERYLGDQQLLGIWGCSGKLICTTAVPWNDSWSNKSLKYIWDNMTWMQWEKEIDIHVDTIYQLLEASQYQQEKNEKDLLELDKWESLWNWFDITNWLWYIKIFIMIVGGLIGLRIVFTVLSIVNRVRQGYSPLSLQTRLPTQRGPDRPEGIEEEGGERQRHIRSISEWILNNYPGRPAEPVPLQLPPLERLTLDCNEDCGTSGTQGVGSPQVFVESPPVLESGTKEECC
# [26] = target: T2, Tyrosine-protein phosphatase non-receptor type 22; assay: SAR LYP1 Fluorescent Assay using OMFP substrate for In Vitro dose response studies - Set 2. [Related pubchem assays (depositor defined):AID1779, AID1784, AID2140, AID449726, AID488869]; assay type: functional
# [27] = target: Tyrosine-protein phosphatase non-receptor type 12 (Homo sapiens, UniProt Q05209); assay: SAR Selectivity Analysis of small molecule inhibitors of PEST using pCAP in a fluorescence assay. [Related pubchem assays (depositor defined):AID1779, AID1784, AID2135]; assay type: functional
# [28] = target: T4, Tyrosine-protein phosphatase non-receptor type 7 (Homo sapiens, UniProt P35236); assay: HePTP (PTPN7) phosphatase inhibitor potency, SAR follow-up, biochemical, set 2 (AID 449736); assay type: functional
# T4 sequence (P35236 whole entry): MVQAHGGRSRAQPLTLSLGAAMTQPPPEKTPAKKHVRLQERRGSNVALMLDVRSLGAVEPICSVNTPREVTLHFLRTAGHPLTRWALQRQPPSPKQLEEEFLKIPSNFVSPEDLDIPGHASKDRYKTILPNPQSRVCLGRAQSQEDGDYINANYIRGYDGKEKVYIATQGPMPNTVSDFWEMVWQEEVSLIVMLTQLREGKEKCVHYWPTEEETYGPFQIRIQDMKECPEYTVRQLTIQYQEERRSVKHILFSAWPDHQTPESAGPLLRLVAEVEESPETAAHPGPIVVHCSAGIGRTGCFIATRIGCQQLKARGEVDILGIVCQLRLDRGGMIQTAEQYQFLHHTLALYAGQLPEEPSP
# [29] = target: Eukaryotic translation initiation factor 4E (Mus musculus, UniProt P63073); assay: eIF4E–eIF4G protein interaction inhibitors, dose response, biochemical, TR-FRET (AID 855); assay type: functional;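 also: potency for disrupting eIF4E binding to eIF4GI seen as loss of FRET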
# Sequence of Eukaryotic translation initiation factor 4E (P63073 whole entry): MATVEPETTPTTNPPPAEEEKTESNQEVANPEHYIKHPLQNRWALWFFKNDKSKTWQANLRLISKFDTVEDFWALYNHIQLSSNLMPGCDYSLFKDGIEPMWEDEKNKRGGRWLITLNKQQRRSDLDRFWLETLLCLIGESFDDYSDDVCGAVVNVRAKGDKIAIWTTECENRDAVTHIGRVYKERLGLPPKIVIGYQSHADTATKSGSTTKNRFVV
# [30] = target: T2, Tyrosine-protein phosphatase non-receptor type 22; assay: SAR LYP1 Fluorescent Assay using pCAP substrate for In Vitro dose response studies - Set 2. [Related pubchem assays (depositor defined):AID1779, AID1784, AID2135, AID449727]; assay type: functional
# [31] = target: T5, Small ubiquitin-related modifier 1 (Homo sapiens, UniProt P63165); assay: inhibitors of SUMO1 peptide binding, dose response, biochemical, fluorescence polarization, uHTS hits (AID 624382); assay type: functional; conditions: read-out: IC50_Mean
# T5 sequence (P63165 whole entry): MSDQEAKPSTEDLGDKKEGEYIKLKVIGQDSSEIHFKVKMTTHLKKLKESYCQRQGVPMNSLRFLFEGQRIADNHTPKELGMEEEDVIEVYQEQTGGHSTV
# [32] = target: T2, Tyrosine-protein phosphatase non-receptor type 22; assay: PubChem AID 2135
# [33] = target: T2, Tyrosine-protein phosphatase non-receptor type 22; assay type: functional; remark: listed apart in the source
# [34] = target: Bcl-2-like protein 1 (Homo sapiens, UniProt Q07817); assay: BCL-XL inhibitors, dose response, selectivity assay for MCL1 inhibitor project, biochemical, fluorescence polarization, 1536-well (AID 2218)
# Sequence of Bcl-2-like protein 1 (Q07817 whole entry): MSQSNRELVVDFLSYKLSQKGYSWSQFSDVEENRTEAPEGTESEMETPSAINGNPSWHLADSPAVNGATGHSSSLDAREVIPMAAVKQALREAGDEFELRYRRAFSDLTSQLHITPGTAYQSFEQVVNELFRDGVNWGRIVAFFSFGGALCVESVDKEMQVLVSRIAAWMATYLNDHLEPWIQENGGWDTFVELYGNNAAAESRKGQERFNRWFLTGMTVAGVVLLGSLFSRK
# [35] = target: Nonstructural protein 1 (Influenza A virus, UniProt Q194T2); assay type: functional, Influenza A virus (A/California/07/2009(H1N1))
# Sequence of Nonstructural protein 1 (Q194T2 whole entry): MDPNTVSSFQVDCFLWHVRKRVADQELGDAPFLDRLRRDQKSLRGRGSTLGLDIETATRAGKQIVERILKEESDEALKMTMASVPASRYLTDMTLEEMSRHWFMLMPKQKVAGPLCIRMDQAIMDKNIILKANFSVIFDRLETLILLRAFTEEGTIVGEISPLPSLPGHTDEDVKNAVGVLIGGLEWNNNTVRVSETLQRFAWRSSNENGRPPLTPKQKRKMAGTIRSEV
# [36] = target: T5, Small ubiquitin-related modifier 1; assay: inhibitors of SUMO1 partner interactions, dose response, biochemical, FRET (AID 624383); assay type: functional; conditions: read-out: IC50_Mean
# [37] = target: Genome polyprotein (dengue virus type 2, UniProt P29990); assay: Dengue-2 NS5 methyltransferase inhibitors, primary screen, biochemical, confirmation dose response (AID 588689); assay type: functional
# Sequence of Genome polyprotein (P29990 2492-3391 limits assumed): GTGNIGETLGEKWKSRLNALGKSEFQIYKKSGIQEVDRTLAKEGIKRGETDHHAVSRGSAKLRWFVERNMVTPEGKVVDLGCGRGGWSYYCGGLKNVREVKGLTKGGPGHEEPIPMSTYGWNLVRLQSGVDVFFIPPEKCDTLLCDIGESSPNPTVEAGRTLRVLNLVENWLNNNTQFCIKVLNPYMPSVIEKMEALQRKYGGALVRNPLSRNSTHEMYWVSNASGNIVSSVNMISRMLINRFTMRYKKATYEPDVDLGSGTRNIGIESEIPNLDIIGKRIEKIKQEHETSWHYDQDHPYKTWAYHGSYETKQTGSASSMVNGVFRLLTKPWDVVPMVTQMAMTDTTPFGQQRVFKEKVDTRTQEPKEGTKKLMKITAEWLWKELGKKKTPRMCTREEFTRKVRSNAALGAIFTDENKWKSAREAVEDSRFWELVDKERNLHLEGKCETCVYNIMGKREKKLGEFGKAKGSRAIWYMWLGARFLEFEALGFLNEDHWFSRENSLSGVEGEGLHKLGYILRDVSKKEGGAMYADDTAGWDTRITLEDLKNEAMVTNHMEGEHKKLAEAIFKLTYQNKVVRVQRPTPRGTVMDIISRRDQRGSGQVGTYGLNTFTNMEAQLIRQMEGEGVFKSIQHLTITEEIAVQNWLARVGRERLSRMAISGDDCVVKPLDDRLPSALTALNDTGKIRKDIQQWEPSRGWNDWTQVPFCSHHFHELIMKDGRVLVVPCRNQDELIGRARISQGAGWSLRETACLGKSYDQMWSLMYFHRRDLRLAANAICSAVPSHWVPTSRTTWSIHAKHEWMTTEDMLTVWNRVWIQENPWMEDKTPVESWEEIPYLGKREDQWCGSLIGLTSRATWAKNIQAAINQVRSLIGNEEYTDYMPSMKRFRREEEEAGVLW
# [38] = target: T2, Tyrosine-protein phosphatase non-receptor type 22; assay: LYP1 Fluorescent Assay using OMFP substrate for In Vitro dose response studies. [Related pubchem assays (depositor defined):AID1779, AID1784, AID435024]
# [39] = target: T2, Tyrosine-protein phosphatase non-receptor type 22; assay: SAR LYP1 Fluorescent Assay using OMFP substrate for In Vitro dose response studies - Set 3. [Related pubchem assays (depositor defined):AID1779, AID1784, AID2140, AID2686]; assay type: functional
# [40] = target: T3, Small ubiquitin-related modifier 2; assay: inhibitors of SUMO2 protein-protein interaction, dose response, selectivity assay for SUMO1 interaction inhibitor project, biochemical, FRET, human SUMO2, uHTS hits (AID 624384); assay type: functional; conditions: read-out: IC50_Mean
# [41] = target: T4, Tyrosine-protein phosphatase non-receptor type 7; assay type: functional
# [42] = target: T4, Tyrosine-protein phosphatase non-receptor type 7; assay: HTS HePTP Fluorescent Assay using OMFP substrate for In Vitro dose response studies. [Related pubchem assays (depositor defined):AID1059, AID1077, AID1784, AID2068, AID2085, AID435032, AID521]; assay type: functional
# [43] = growth induction of Burl-1 ts yeast mutant, dose response, counter-screen for SUMOylation pathway inhibitor project, whole organism, S. cerevisiae, luminescence (AID 463199); assay type: functional
compound,measurement,setting,value
O=P(c1ccccc1)(c1nc2ccccc2s1)N1CCOCC1 (stereo not drawn),IC50,[1],> 50 µM (inactive)
same,IC50,[2],> 100 µM (inactive)
Cc1ccc(Nc2c(-c3ccccn3)nc3cc(C)ccn23)cc1,EC50,[3],7.83 µM (inconclusive)
same,IC50,[4],1.7 µM (active)
same,EC50,[5],12.2 µM (active)
same,AC50,[6],4.06 µM (active)
same,AC50,[7],15.5 µM (active)
same,EC50,[8],4.56 µM (active)
same,EC50,[9],0.951 µM (active)
same,AC50,[10],61.3 µM (active)
same,EC50,[11],4.69 µM (active)
same,EC50,[12],7.37 µM (active)
same,EC50,[13],13.2 µM (active)
same,IC50,[14],0.61 µM (active)
same,AC50,[15],1.36 µM (active)
same,EC50,[16],49.3 µM (active)
same,AC50,[17],5.48 µM (active)
same,AC50,[18],4.81 µM (active)
Cc1c(Cl)cccc1NS(=O)(=O)c1ccc2c(c1)C1C=CCC1C(c1ccc(C(=O)O)cc1)N2 (stereo not drawn),IC50,[19],6.54 µM (active)
same,IC50,[20],47.4 µM (active)
same,IC50,[21],19.6 µM (active)
same,IC50,[22],26.9 µM (active)
same,IC50,[23],12.6 µM (active)
same,IC50,[24],20.8 µM (active)
same,IC50,[25],5.02 µM (active)
same,IC50,[26],43.7 µM (active)
same,IC50,[27],2.36 µM (active)
same,IC50,[28],3.93 µM (active)
same,IC50,[29],14.2 µM (active)
same,IC50,[30],45 µM (active)
same,IC50,[31],5.38 µM (active)
same,IC50,[32],> 100 µM (inactive)
same,IC50,[33],48.5 µM (active)
same,IC50,[34],50.8 µM (not active)
same,IC50,[35],82.4 µM (active)
same,IC50,[36],23.6 µM (inactive)
same,IC50,[37],62.2 µM (active)
same,IC50,[38],39.9 µM (active)
same,IC50,[39],15.8 µM (active)
same,IC50,[40],5.02 µM (active)
same,IC50,[41],49.8 µM (active)
same,IC50,[42],37.5 µM (active)
O=C1CN(C(=O)COC(=O)COc2ccc3c(c2)CCC3)c2ccccc2N1,AC50,[43],48.6 µM (active)
